Consider six compounds from US4206215A, “Antimicrobial bis-[4-(substituted-amino)-1-pyridinium]alkanes” (Sterling Drug Inc., priority 1977, dated 1980).

One assay deals with C. albicans 10231. Briefly: In vitro antifungal activity, MIC (modified Autotiter method). The assay is classed as cell-based, Candida albicans. The settings on record: Candida albicans, 10231, 20 h, 18-20 hours at 37° C.; read-out: MIC C. albicans 10231. The procedure: (§1) The antibacterial and antifungal activity of representative examples of the compounds of Formula I was determined using a modification of the Autotiter method described by Goss, et al. Applied Microbiology 16 (9) 1,414-1,416 (1968) in which a 1,000 mcg./ml. solution of the test compound is prepared. To the first cup of the Autotray is added 0.1 ml. of the test solution. Activation of the Autotiter initiates a sequence of operations by which 0.05 ml. of the test compound solution is withdrawn from the cup by a Microtiter transfer loop and diluted in 0.05 ml. of sterile water. Following this operation, 0.05 ml. of inoculated double-strength semisynthetic medium (glucose) is added automatically to each cup. The overall operation results in final drug concentrations ranging from 500 to 0.06 mcg./ml. in twofold decrements. […] The compounds were thus tested as solutions against a variety of gram positive and gram negative bacteria including Staphylococcus aureus, Proteus mirabilis, Escherichia coli, Klebsiella pneumoniae, Pseudomonas aeruginosa, Streptococcus pyogenes, and against such fungi as Aspergillus niger, Candida albicans and Trichophyton mentagrophytes.

A further assay concerns C. albicans Wisc. The description is as above. The settings on record: Candida albicans, 20 h, 18-20 hours at 37° C.; read-out: MIC C. albicans Wisc. In kind it is cell-based, Candida albicans. As for the experimental part: as §1
Another assay has as its system S. Aureus Smith. Briefly: In vitro antibacterial activity, MIC (modified Autotiter method). The assay is classed as cell-based, Staphylococcus aureus. The settings on record: Staphylococcus aureus, 20 h, 18-20 hours at 37° C.; read-out: MIC S. Aureus Smith. As for the experimental part: as §1
Another assay deals with E. coli 100/B22. The assay is described as above. The settings on record: Escherichia coli, 100/B22, 20 h, 18-20 hours at 37° C.; read-out: MIC E. coli 100/B22. In kind it is cell-based, Escherichia coli. As for the experimental part: as §1
In a further assay the test system is E. coli Vogel. The assay is described as above. The settings on record: Escherichia coli, 20 h, 18-20 hours at 37° C.; read-out: MIC E. coli Vogel. In kind it is cell-based, Escherichia coli. As for the experimental part:
as §1

In the next assay the test system is E. coli AB1932-1. The assay is described as above. In kind it is cell-based, Escherichia coli. The settings on record: Escherichia coli, AB19321, 20 h, 18-20 hours at 37° C.; read-out: MIC E. coli AB1932-1. The procedure: as §1
Another assay relates to T. menta. 9129. Briefly: In vitro antifungal activity, MIC (modified Autotiter method). The settings on record: Trichophyton mentagrophytes, 20 h, 18-20 hours at 37° C.; read-out: MIC T. menta. 9129. In kind it is cell-based, Trichophyton mentagrophytes. The procedure: as §1
The test system of a further assay is S. pyogen. C203. Briefly: In vitro antibacterial activity, MIC (modified Autotiter method). In kind it is cell-based, Streptococcus pyogenes. The settings on record: Streptococcus pyogenes, 20 h, 18-20 hours at 37° C.; read-out: MIC S. pyogen. C203. As for the experimental part: as §1
A further assay deals with P. mirab. MGH-1. The assay is described as above. The assay is classed as cell-based, Proteus mirabilis. The settings on record: Proteus mirabilis, 20 h, 18-20 hours at 37° C.; read-out: MIC P. mirab. MGH-1. The procedure:
as §1

For a further assay, the system named is K. pneum. 39645. The description is as above. In kind it is cell-based, Klebsiella pneumoniae. The settings on record: Klebsiella pneumoniae, 20 h, 18-20 hours at 37° C.; read-out: MIC K. pneum. 39645. As for the experimental part:
as §1

Another assay has as its system Ps. aerug. MGH-2. The assay is described as above. The assay is classed as cell-based, Pseudomonas aeruginosa. The settings on record: Pseudomonas aeruginosa, 20 h, 18-20 hours at 37° C.; read-out: MIC Ps. aerug. MGH-2. The procedure:
as §1

The subject of a further assay is A. niger 16404. Briefly: In vitro antifungal activity, MIC (modified Autotiter method). In kind it is cell-based, Aspergillus niger. The settings on record: Aspergillus niger, 16404, 20 h, 18-20 hours at 37° C.; read-out: MIC A. niger 16404. The procedure: as §1

As to `CCCCCCNc1cc[n+](CCCCCCCCC[n+]2ccc(NCCCCCC)cc2)cc1` [Example 19, 1,9-bis-[4-(hexylamino)-1-pyridinium]-nonane dibromide], the MIC with C. albicans 10231 came out at 1.95 µg/mL; in the assay on C. albicans Wisc., 3.9 µg/mL; with S. Aureus Smith, 0.39 µg/mL; in the assay with E. coli 100/B22, 1.95 µg/mL; with E. coli Vogel it was 1.95 µg/mL; in the assay on E. coli AB1932-1 it was 1.95 µg/mL. The MIC in the assay on T. menta. 9129 is 3.9 µg/mL; in the assay on S. pyogen. C203 it was 0.49 µg/mL; in the assay with P. mirab. MGH-1, 125 µg/mL; in the assay on K. pneum. 39645, 3.9 µg/mL; in the assay with Ps. aerug. MGH-2, 125 µg/mL; in the assay with A. niger 16404, 15.6 µg/mL.
With `CCCCCCCCCCCCNc1cc[n+](CCCCCCCC[n+]2ccc(NCCCCCCCCCCCC)cc2)cc1` [Example 72, 1,8-bis-[4-(dodecylamino)-1-pyridinium]octane dibromide], the MIC in the assay on C. albicans 10231 is 31.3 µg/mL; in the assay with C. albicans Wisc., 31.3 µg/mL; in the assay on S. Aureus Smith, 7.8 µg/mL; in the assay with E. coli 100/B22, > 62.5 µg/mL; in the assay on E. coli Vogel, 31.3 µg/mL; in the assay with E. coli AB1932-1, 62.5 µg/mL. Further, the MIC in the assay with T. menta. 9129 is 7.8 µg/mL; in the assay on S. pyogen. C203, 15.6 µg/mL; in the assay on P. mirab. MGH-1 it was 62.5 µg/mL; in the assay with K. pneum. 39645 it was > 62.5 µg/mL; in the assay with Ps. aerug. MGH-2 it was > 62.5 µg/mL; in the assay with A. niger 16404, > 62.5 µg/mL.
Take `CCCCCCCCCCNc1cc[n+](CCCCCCCCCC[n+]2ccc(NCCCCCCCCCC)cc2)cc1` [Example 68, 1,10-bis-[4-(decylamino)-1-pyridinium]decane dibromide]: the MIC amounted to 15.6 µg/mL with C. albicans 10231; 15.6 µg/mL in the assay on C. albicans Wisc.; 1.95 µg/mL in the assay with S. Aureus Smith; 15.6 µg/mL in the assay on E. coli 100/B22; 7.8 µg/mL in the assay with E. coli Vogel; 15.6 µg/mL in the assay with E. coli AB1932-1. Also, the MIC is 3.9 µg/mL in the assay on T. menta. 9129; 3.9 µg/mL with S. pyogen. C203; 7.8 µg/mL in the assay on P. mirab. MGH-1; 31.3 µg/mL in the assay with K. pneum. 39645; 15.6 µg/mL in the assay on Ps. aerug. MGH-2; 15.6 µg/mL in the assay on A. niger 16404.
Regarding `Clc1ccc(Nc2cc[n+](CCCCCCCC[n+]3ccc(Nc4ccc(Cl)cc4)cc3)cc2)cc1` [Example 78B, 1,8-bis-[4-(p-chlorophenylamino)-1-pyridinium]octane dimethanesulfonate], the MIC with C. albicans 10231 amounted to 62.5 µg/mL; in the assay with C. albicans Wisc. it was 62.5 µg/mL; in the assay with S. Aureus Smith it was 0.4 µg/mL; in the assay on E. coli 100/B22, 3.1 µg/mL; with E. coli Vogel, 3.1 µg/mL; in the assay with E. coli AB1932-1 it was 1.6 µg/mL. The MIC with T. menta. 9129 amounted to 31.3 µg/mL; in the assay with S. pyogen. C203 it was 0.2 µg/mL; in the assay with P. mirab. MGH-1, 125 µg/mL; in the assay on K. pneum. 39645, 31.3 µg/mL; in the assay with Ps. aerug. MGH-2, 125 µg/mL; in the assay with A. niger 16404, 31.3 µg/mL.
On to `CCCCCCCCCNc1cc[n+](CCCCCCC[n+]2ccc(NCCCCCCCCC)cc2)cc1` [Example 49, 1,7-bis-[4-(nonylamino)-1-pyridinium]heptane dibromide], for which the MIC came out at 1.95 µg/mL in the assay with C. albicans 10231; 1.95 µg/mL with C. albicans Wisc.; 0.5 µg/mL in the assay with S. Aureus Smith; 1.95 µg/mL with E. coli 100/B22; 1 µg/mL with E. coli Vogel; 1.95 µg/mL in the assay with E. coli AB1932-1. In addition, the MIC is 1 µg/mL with T. menta. 9129; 1 µg/mL in the assay on S. pyogen. C203; 3.9 µg/mL in the assay on P. mirab. MGH-1; 1.95 µg/mL in the assay on K. pneum. 39645; 15.6 µg/mL with Ps. aerug. MGH-2; 7.8 µg/mL in the assay on A. niger 16404.
On to `CCCCCCCCCCCCNc1cc[n+](CCCCCCC[n+]2ccc(NCCCCCCCCCCCC)cc2)cc1` [Example 71, 1,7-bis-[4-(dodecylamino)-1-pyridinium]heptane dibromide], for which the MIC in the assay on C. albicans 10231 is 62.5 µg/mL; with C. albicans Wisc., 62.5 µg/mL; in the assay with S. Aureus Smith, 3.9 µg/mL; in the assay with E. coli 100/B22, 62.5 µg/mL; in the assay with E. coli Vogel, 62.5 µg/mL; in the assay with E. coli AB1932-1, 62.5 µg/mL. In addition, the MIC in the assay with T. menta. 9129 is 7.8 µg/mL; in the assay with S. pyogen. C203 it was 7.8 µg/mL; in the assay with P. mirab. MGH-1, 62.5 µg/mL; with K. pneum. 39645 it was > 62.5 µg/mL; with Ps. aerug. MGH-2 it was 62.5 µg/mL; in the assay on A. niger 16404, 62.5 µg/mL.
